Patent US20250346588A1, “IMIDAZOPYRIDINE AND OXAZOLOPYRIDINE DERIVATIVES AND ANALOGS THEREOF, METHODS OF PREPARATION THEREOF, METHODS OF HIF-1/2A PATHWAY INHIBITION, AND INDUCTION OF FERROPTOSIS” (KUDA THERAPEUTICS, INC., priority 2022, published 2025)
Read-outs that look alike come from different tables or passages of the source.

How the values were obtained:
[1] = test system: HIF-2α transcriptional activity; assay: Hypoxia-responsive element-driven luciferase (HRE-Luc) screen; type: cell-based, human; details: Homo sapiens, 786-0, 24 h, 786-0 ccRCC cells stably expressing HRE-Luc; 24 h treatment; range of IC50 values
Description: (§1) Screens for inhibitory activity of compounds described herein were performed using 786-0 ccRCC cells that stably express HRE-Luc: 5 copies of the hypoxia-responsive element (HRE) fused to the pGL3 luciferase reporter (Promega Corp, Madison WI). 786-0 cells are pVHL deficient and thus constitutively express HIF-2α independently of cellular oxygen tension. Since 786-0 cells lack HIF-1α, HRE-driven luciferase activity is primarily HIF-2α driven, and has been previously validated. Cells were maintained at log phase growth in […] (DMEM) with 10% FBS in a humidified incubator at 37° C. with 5% CO2. For screening assays, cells were seeded at a density of 4,000 cells in 50 μl of complete media/well in quadruplicate wells/point in a 96-well plate. After 24 h, 50 μl of a 2× concentration of test compound was added to each well. Compounds were diluted from a 5-10 mM stock in DMSO and final concentrations of DMSO in each well in controls and treated wells were kept constant at ≤0.6% DMSO. After 24 h treatment, luciferase activity was measured using the Steady-Glo Luciferase assay system (Promega Corp) according to the manufacturer's protocol. Cell viability was measured in quadruplicate parallel wells using resazurin as recommended by the manufacturer (R&D systems, Minneapolis, MN). Data for luciferase and resazurin were normalized to DMSO treated controls (defining 100%) and wells containing assay reagent but no cells (defining 0%) and graphed using the log inhibitor versus normalized response option in Graphpad Prism 9.3.1 software. Representative data determined using Steady-Glo luciferase and resazurin are shown in FIGS. 1A and 1B respectively, with error bars showing SD. Filled diamonds, empty squares and empty triangles indicate treatment with 3, 8 and 22 respectively with results for HRE-Luc shown in FIG. 1A.

[2] = test system: 786-0 cells; assay: Resazurin cell viability assay, with or without DFO and other inhibitors; type: cell-based, human; details: for IC50: Homo sapiens, 24 h, resazurin
Description: as §1
In view of the increased cellular iron concentrations induced by the compounds described herein, the involvement of iron in mediating cell death was determined. Cell viability assays were performed as described in Example 2 using resazurin as a cell viability readout and performed in the absence or presence of 100 μM of the iron chelator, DFO (D9533, MilliporeSigma, St Louis, MO). […] Viability IC50 values are shown in brackets.

[3] = test system: HIF-1α and HIF-2α; assay: Western blots for HIF-1α and HIF-2α in ccRCC cells; type: cell-based, human; details: 786-0 or RCC10 ccRCC cells, 24h, relative to GAPDH
Description: (§2) Western blots were performed to determine the effects of the compounds on levels of HIF-2α and other relevant proteins, whereas qPCR was performed to determine the effects of compounds on transcript levels of HIF target genes. 786-0 or RCC10 cells were plated at 1×10E5 cells/well in 2 ml DMEM with 10% FBS/well in 6-well tissue culture plates. Cells were allowed to adhere overnight in a humidified incubator at 37° C. with 5% CO2, after which the appropriate concentrations of compounds in DMSO were added. DMSO concentrations were kept constant in all wells. After 24 h exposure to the compounds, cells were lysed and subjected to western blotting according to standard protocols. Antibodies for HIF-1α and HIF-2α and GAPDH were purchased from Cell Signaling Technology (Danvers, MA), whereas antibodies to IRP2 and pVHL were from Santa Cruz Biotechnology (Dallas, TX), and GPX4 antibody was from R&D Systems, Inc (Minneapolis, MN). Representative data in FIG. 2 show a dose-dependent effect of compounds in decreasing HIF-1/2α. Compounds also impact cellular iron sensing given by increased IRP2, which taken together indicate that cells sense decreased amounts of available iron, which triggers the iron starvation response initiated by IRP2 stabilization. Representative data shown in FIG. 3D show a dose dependent effect of the compounds on GPX4, which may indicate decreased resistance to ferroptosis. […] The data also show increased expression of ISCA2 with pVHL re-expression.

[4] = test system: IRP2 and GPX4; assay: Western blots for cellular iron-sensing machinery (IRP2, GPX4); type: cell-based, human; details: 786-0 or RCC10 ccRCC cells, 24h, relative to GAPDH
Description: as §2

[5] = test system: 786-0 ccRCC cells; assay: ICP-MS of cellular iron, zinc and copper; type: cell-based, human; details: 786-0 cells, 24h
Description: These studies were performed to determine the content of iron and other transition metals in cells after exposure the compounds described herein. 786-0 cells were seeded at 1.5 million cells/flask in T75 cm^2 flasks in DMEM+10% FBS, and allowed to adhere overnight. Cells were then treated with indicated concentrations of compounds in DMSO or DMSO alone (vehicle) for a further 24 h, after which cells were detached by trypsinization, counted, washed twice in phosphate-buffered saline (PBS) and pelleted. Experiments were performed using three replicate T75 cm^2 flasks per condition. A 5:1 mixture of nitric acid (OPTIMA Grade, 70%, Fisher Scientific) and ultrapure hydrogen peroxide (ULTREX II, 30%, Fisher Scientific) was added to cell pellets. This mixture was allowed to digest overnight, heated until dry, and resuspended in 2% nitric acid for analysis using an Agilent 7900 ICP-MS (Agilent Technologies, Santa Clara, CA). Calibration standard solutions for determination of Fe were prepared from Agilent multi-element calibration standard-2A. An Agilent Environmental Calibration Standard was used as an independent control. PBS-only control digestions were used to measure background. Metal readings were normalized to cell number. Data obtained from these studies for three replicate readings (with SEM) are shown in FIG. 3, which show an increase in cellular iron (Fe) content after treatment with indicated compounds.

[6] = Bioavailability studies; type: in vivo; details: Swiss albino mice, at a 100 mg/kg dose
[7] = test system: HIF-2α Iron-Responsive Element (IRE); assay: HIF-2α IRE-Luc reporter assay; type: cell-based, human; details: 786-0 cells stably expressing HIF-2α IRE-Luc, 24h
Description: as §1, with “Compounds were diluted from a 5-10 mM stock in DMSO and final concentrations of DMSO in each well in controls and treated wells were kept constant at ≤0.6% DMSO.” left out, “Data for luciferase and resazurin were normalized to DMSO treated controls (defining 100%) and wells containing assay reagent but no cells (defining 0%) and graphed using the log inhibitor versus normalized response option in Graphpad Prism 9.3.1 software.” left out, “Filled diamonds, empty squares and empty triangles indicate treatment with 3, 8 and 22 respectively with results for HRE-Luc shown in FIG. 1A.” left out

[8] = test system: 786-0 cells; assay: TBARS assay of lipid peroxidation (MDA); type: cell-based, human; details: 48h treatment
Description: Malondialdehyde (MDA) is an end product of lipid peroxidation products and can be used to indicate lipid peroxidation, which is a hallmark of ferroptosis. MDA adducts were quantitated in cells and tumor tissue using the TBARS-TCA Method kit (Cat 700870, Cayman Chemicals, Ann Arbour Michigan) according to the manufacturer's protocol. Briefly, 786-0 cells were seeded at 1.75×10E6 cells in T75 cm^2 flasks, allowed to adhere overnight in a humidified incubator at 37° C. with 5% CO2, then treated with test compounds for 48 h, RSL3 (as positive control for 6h) or DMSO control (volume of DMSO kept constant for all flasks). Cells were detached by trypsinization, pelleted by centrifugation, washed in PBS twice, resuspended in 200 μL PBS, then sonicated for 3 minutes in a sonicating water bath. Representative data showing effects of 26HCL or 62TFA in comparison to RSL3, a classical ferroptosis inducer, is shown in FIG. 5. For MDA quantitation in tumor chunks, 20-50 mg of tumor tissue was homogenized in 200-500 μL of PBS, then sonicated for 5 minutes in a sonicating water bath. The cell or tumor lysates were subjected to the colorimetric detection methods described in manufacturer's protocol. MDA concentration of cells was determined in comparison to a standard curve of MDA stock solution provided by the manufacturer. Data was plotted using Prism GraphPad 9.3.1 Software. […]

[9] = test system: RENCA syngeneic tumors; assay: RENCA syngeneic tumor model, immunohistochemistry of tumors; type: in vivo; details: Balb/c mice, once daily oral dosing, 14 days
Description: A similar study was performed using RENCA cells, which are derived from a renal tumor that arose spontaneously in a male Balb/c mouse. RENCA cells were purchased from ATCC and 2 million cells were implanted into the flanks of Balb/c mice. Once tumors attained an average size of approximately 75-100 mm^3, mice were stratified into two groups and animals treated with either vehicle or 70 mg/kg 26HCL once daily PO. Mouse tumor volumes were measured three times a week until tumors reached approximately 3000 mm^3, or mice required euthanasia. […] FIG. 10B through 10D show western blot quantitation and MDA quantitation by TBARs assay, as performed for the 786-0 xenografts.
Similar studies were performed using 786-0 and RENCA tumor models treated with 62TFA. […] Immunohistochemistry was performed using standard techniques using CD8 (CST98941) and CD31 (CST77699) purchased from Cell Signaling Technologies.

[10] = test system: RCC4 or 786-0 cells±pVHL re-expression; assay: Cell viability with pVHL re-expression; type: cell-based, human; details: 48h

SMILES	IC50 [1] [µM]	effect of DFO co-treatment on compound-mediated loss of cell viability ([2]; DFO 100 μM, FIG. 4B)	effect on HIF-1α and HIF-2α protein (Western blot) [3]	effect on IRP2 protein (Western blot) [4]	cellular iron (Fe), zinc (Zn) and copper (Cu) content [5]	half-life [6] [h]	Bioavailability F ([6]; oral) [%]	effect on IRE-luciferase reporter activity normalized to resazurin [7]	lipid peroxidation (MDA-TBA adducts) [8]	CD8 cytotoxic T-cell infiltration (immunohistochemistry of tumors) [9]	angiogenesis (CD31 immunohistochemistry of tumors) [9]	effect of pVHL re-expression on cell viability response to compound [10]	IC50 ([2]; compound alone, read-out: cell viability IC50) [µM]	IC50 ([2]; with DFO 100 μM, read-out: cell viability IC50 in the presence of DFO) [µM]
COc1nccc2[nH]c(Nc3nnc(-c4ccc(F)cc4)o3)nc12 [Compound 3, 5-(4-Fluorophenyl)-N-(4-methoxy-1H-imidazo[4,5-c]pyridin-2-yl)-1,3,4-oxadiazol-2-amine]	< 10	protective effects of DFO	decreases HIF-1α and HIF-2α	increases IRP2	increases the content of iron, zinc and copper in cells									
COc1nccc2[nH]c(Nc3nnc([C@H]4CC[C@@H](OC)CC4)o3)nc12 [Compound 62TFA, N-(4-methoxy-1H-imidazo[4,5-c]pyridin-2-yl)-5-((1s,4s)-4-methoxycyclohexyl)-1,3,4-oxadiazol-2-amine]			decreases HIF-1α and HIF-2α	increases IRP2		7	55	decrease IRE-mediated translation of HIF-2α	induce lipid peroxidation to an extent comparable to the ferroptosis inducer RSL3	increases CD8-T cell infiltration	markedly decreases angiogenesis	re-expression of pVHL promotes resistance		
COc1ccc(-c2nnc(Nc3nc4c(OC)nccc4[nH]3)o2)cc1 [Compound 22, N-(4-methoxy-1H-imidazo[4,5-c]73yridine-2-yl)-5-(4-methoxyphenyl)-1,3,4-oxadiazol-2-amine]	< 10				increases the content of iron, zinc and copper in cells								11.4	83.6
